Experimental data taken from US7989466B2, “Methods to inhibit or augment an inflammatory response” (Cambridge Enterprise Limited, priority 1999, dated 2011).
Like-named read-outs stand apart in the source and are kept apart here. Marks after values point to notes of the source that are not given here. Positions of bridges follow the written chain, without caps; N, C: chain ends. No end group written: not given here. *: point of attachment. Biotin = O=C1N[C@H]2[C@H](CS[C@H]2CCCCC(=O)*)N1

Legend:
[1] = test system: MCP-1 induced THP-1 migration; assay: THP-1 trans-well migration assay, MCP-1 as chemoattractant; type: cell-based, human
Experimental: (§1) To determine whether an agent inhibits a chemokine-induced activity, such as macrophage recruitment, varying amounts of the agent are mixed with cells in the presence of a known chemoattractant. For example, a range of known concentrations of an agent, e.g., a chemokine peptide, is incubated with a defined number (e.g., 10^4-10^6) of human THP-1 monocyte cells in individual wells of the top compartment of a trans-well plate. Chemokine (such as MCP-1, MIP1α, IL8 or SDF-1α), at a concentration known to cause significant migration of THP-1 cells in the trans-well migration assay, is placed in the lower compartment (FIG. 1). Cells are then incubated at 37° C. for a period sufficient to allow migration, e.g., 4 hours. After incubation, the cells are gently removed from the top of the filter with a pipette, 20 μl of 20 mM EDTA in simple PBS is added into each top well, and incubated for 20 minutes at 4° C. The filter is carefully flushed with media using a gentle flow, and removed. A standard curve consisting of a two-fold dilution series of THP-1 cells (in 29 μl) is prepared to accurately quantify the number of cells that have migrated. Migrated cells are stained with 3 μl of MTT stock dye solution which is added directly into each well (5 mg/ml in RPMI-1640 without phenol red, Sigma Chemical Co.) and incubated at 37° C. for 4 hours. The media is carefully aspirated from each well, and the converted dye is solubilized by 20 μl of DMSO. Absorbance of converted dye is measured at a wavelength of 595 nm using an ELISA plate reader. The number of migrated cells in each well is then determined by interpolation of the standard curve (see also Imai et al., J. Biol. Chem., 272, 15036 (1997)).
(§2) For this assay, THP-1 cells were maintained at a density of 4×10^5 cells per ml in RPMI-1640 supplemented with 10% fetal calf serum+20 μM 2-mercaptoethanol. Chemotaxis was induced in a 96-well disposable chemotaxis chamber fitted with a […] polycarbonate filter (PVP free, ChemoTX, Neuroprobe Inc., Cabin John). Twenty-nine μl of chemoattractant (recombinant human chemokine; 50 ng/ml, i.e., 5.9 nM) or control (100 ng/ml TGFβ) was added to the lower compartment of each well. The framed filter was aligned with the holes in the corner of the filter frame and placed over the wells. Five×10^4 THP-1 cells in 25 μl of RPMI-1640 were added to the upper compartment. Peptides were dissolved in Milli Q water and then serially diluted in culture medium. In most cases, the serially diluted peptides were added to the upper compartment of the chemotaxis chamber. The chamber was incubated at 37° C. in a humidified atmosphere of 5% CO2 for 4 hours.
(§3) After incubation, the cells were gently removed from the top of the filter with a pipette, 20 μl of 20 mM EDTA in PBS was added into each top well, and the mixture was incubated for 20 minutes at 4° C. The filter was then carefully flushed with media using a gentle flow, and removed. A standard curve was prepared to accurately quantify the number of THP-1 cells that had migrated. The curve was based on a two-fold dilution series of THP-1 cells (top standard 100,000 cells in 29 μl). Cells which had migrated, and in separate wells, the cells in the standards, were stained with 3 μl of MTT stock solution which was added directly into each well (5 mg/ml in RPMI 1640 without phenol red, Sigma Chemical Co.) and incubated at 37° C. for 4 hours. The media was carefully aspirated from each well, and the converted dye was solubilized by 20 μl of DMSO. Absorbance of converted dye was measured at a wavelength of 595 nm using an ELISA plate reader. The number of cells that had migrated in each well was determined by interpolation of the standard curve.

[2] = test system: chemokine-induced THP-1 migration; assay: THP-1 trans-well migration assay, panel of chemokines (MCP-1, MIP1α, IL-8, SDF1α); type: cell-based, human; details: for effect on THP-1 migration induced by the chemokine panel, in words / Chemokine antagonist: MCP-1, MIP1α; for effect on THP-1 migration induced by the chemokine panel, in words: IL-8, SDF1α; for CC SPECIFICITY: average inhibitory ED50 versus SDF1 and IL8 divided by average inhibitory ED50 versus MCP-1 and MIP1α; for Chemokine antagonist: active against at least one of IL-8, SDF-1α
[3] = test system: IL8 induced THP-1 migration; assay: THP-1 trans-well migration assay, IL-8 as chemoattractant; type: cell-based, human; details: for EC50: n.s. = no statistically significant inhibition (p > 0.05), read-out: ED50 versus IL8, inhibition of THP-1 migration
Experimental: as §1, §2, §3

[4] = test system: MIP1α induced THP-1 migration; assay: THP-1 trans-well migration assay, MIP1α as chemoattractant; type: cell-based, human; details: n.s. = no statistically significant inhibition (p > 0.05); read-out: ED50 versus MIP1α, inhibition of THP-1 migration
Experimental: as §1, §2, §3

[5] = test system: SDF-1α induced THP-1 migration; assay: THP-1 trans-well migration assay, SDF-1α as chemoattractant; type: cell-based, human; details: n.s. = no statistically significant inhibition (p > 0.05); read-out: ED50 versus SDF-1α, inhibition of THP-1 migration
Experimental: as §1, §2, §3

[6] = test system: TGFβ1 induced THP-1 migration; assay: THP-1 trans-well migration assay, TGFβ1 as non-chemokine control; type: cell-based, human; details: n.s. = no statistically significant inhibition (p > 0.05)
Experimental: Any method suitable for counting cells can be used, for example, counting with a hemocytometer, incubation of the cells with MTT (see above), or FACS analysis. A negative control assay is also performed, using TGF-β or another non-chemokine chemoattractant (e.g., IL1β or TNFα). To assess whether the agent is cytotoxic, the same concentrations of agent are incubated with THP-1 cells. Agents which 1) are not cytotoxic at levels which inhibit migration, 2) are ineffective at inhibiting the negative control-induced migration, and 3) reduce or inhibit chemokine-induced THP-1 migration, are agents which fall within the scope of the invention.
Chemotaxis was induced in a 96-well disposable chemotaxis chamber fitted with a […] polycarbonate filter (PVP free, ChemoTX, Neuroprobe Inc., Cabin John). […] The framed filter was aligned with the holes in the corner of the filter frame and placed over the wells. […] Peptides were dissolved in Milli Q water and then serially diluted in culture medium. In most cases, the serially diluted peptides were added to the upper compartment of the chemotaxis chamber. The chamber was incubated at 37° C. in a humidified atmosphere of 5% CO2 for 4 hours.
After incubation, the cells were gently removed from the top of the filter with a pipette, 20 μl of 20 mM EDTA in PBS was added into each top well, and the mixture was incubated for 20 minutes at 4° C. The filter was then carefully flushed with media using a gentle flow, and removed. […] The curve was based on a two-fold dilution series of THP-1 cells (top standard 100,000 cells in 29 μl). […] The media was carefully aspirated from each well, and the converted dye was solubilized by 20 μl of DMSO.

[7] = test system: chemokine receptors on THP-1 cells; assay: Binding to chemokine receptors on THP-1 cells; set-up: species or system human
Experimental: In general, specific binding is calculated as the amount of labeled agent bound in the absence of cold competitor minus the amount of labeled agent bound in the presence of cold competitor. The amount of specific binding in the presence of varied amounts of cold competitor can be used to determine the association constant for the agent, as well as the number of binding sites on the cell for the agent, using, for example, Scatchard Analysis. The agent may be labeled by radiolabeling (e.g., iodination) or with a suitable biochemical tag (e.g., biotin) or by addition of a photoactivatable crosslinking group. Agents with an association constant lower than 100 μM (i.e., which bind more strongly than an agent with an association constant of 100 μM) and which have at least about 2,500, preferably at least about 10,000, and more preferably greater than 25,000, binding sites per cell for at least one cell type which expresses a chemokine receptor, fall under the scope of this invention. THP-1 cells have at least about 5,000 MCP-1 receptors/cell.
For example, monocytes are suspended in RPMI 1640 medium without bicarbonate containing 0.2% bovine serum albumin and 0.1% azide. Radiolabeled chemokine peptide is incubated with 1-2×10^6 cells, e.g., THP-1 cells, in the presence or absence of increasing concentrations of unlabeled chemokine (MCP-1, MCP-3, MCP-4, RANTES or MIP-1α) for 15 minutes at 37° C. in a 96-well plate in a final volume of 0.2 ml (e.g., PBS+0.5% FCS). After the incubation, 0.5 ml of ice-cold wash buffer (20 mM Tris, 0.5 M NaCl, pH 7.4) is added, and cells are collected onto a polyethyleneimine-treated Whatman GF/C filter using a Brandall cell harvester. Filters are washed with 4 ml of cold wash buffer, and the radioactivity bound to the filters is counted in a γ-counter.
For Scatchard analysis, the absorbance readings at 450 nm were calibrated, by reference to a standard curve in which known amounts of labeled peptide were coupled to derivatized sepharose beads (activated thiol-sepharose 4B; Sigma T8512) via the cysteine residue in each peptide. Briefly, known amounts (1 fmol to 1 pmol) of biotin-labeled peptide were incubated with 1 mg of activated thiol-sepharose beads in 100 μl of PBS at 37° C. for 1 hour. Free activated thiols were then blocked by addition of cysteine to a final concentration of 10 mM. The peptide-conjugated beads were then washed 5 times in PBS and treated exactly as for the cells described above. The absorbance at 450 nm obtained when a known amount of peptide was coupled to the beads was used to construct a standard curve which was used to convert the absorbance readings obtained with cells into number of molecules of labeled peptide which had bound.

[8] = Homo sapiens, THP-1, agent with the cells in the upper compartment, n.s. = no statistically significant inhibition (p > 0.05), read-out: ED50 versus MCP-1, inhibition of THP-1 migration
[9] = average inhibitory ED50 for inhibition of THP-1 migration induced by each of the chemokines, read-out: AVERAGE ED50
[10] = agent with the cells in the upper compartment, n.s. = no statistically significant inhibition (p > 0.05), read-out: ED50 versus MCP-1, inhibition of THP-1 migration

## CCC1(c2ccccc2)CCC(=O)NC1=O (centres unmarked) [Glutethimide, reference compound]
[1]; Homo sapiens, THP-1, read-out: ED50 versus MCP-1, inhibition of THP-1 migration
  EC50: 50 µM

## Cc1cc(C(C)(C)C)c(O)c(C)c1CC1=NCCN1 [Oxymetazoline, reference compound]
[1]; [8]
  EC50: 75 µM

## O=C1NC(=O)C(c2ccccc2)(c2ccccc2)N1 [Phenytoin, reference compound]
[1]; [8]
  EC50: 10 µM

## COC(=O)[C@@H]1[C@H]2C[C@H]3c4[nH]c5ccccc5c4CCN3C[C@@H]2CC[C@@H]1O [Yohimbine, reference compound]
[1]; Homo sapiens, THP-1, read-out: ED50 versus MCP-1 induced chemotaxis of THP-1
  EC50: 0.03 µM

## COC(=O)[C@H]1[C@H]2C[C@H]3c4[nH]c5ccccc5c4CCN3C[C@H]2CC[C@@H]1O [α-Yohimbine, reference compound]
[1]; read-out: ED50 versus MCP-1 induced chemotaxis of THP-1
  EC50: 0.5 µM

## -CQVWKQKPDAC-- (disulfide 1-11; not fully specified (some residues, C-terminus); printed as -CQVWKQKPDAC--; also: CRD: cyclic reverse-D derivative, D-residues shown in italics, not given here) [CRD-Cys13pep3[3-12]]
[2]; [9]
  EC50: 0.8 µM

## APG [reference compound]
[2]
  effect on THP-1 migration induced by the chemokine panel, in words: None of these significantly inhibited migration

## CADPKQKWVQ [Peptide 3[3-12]]
[3]
  EC50: 9 µM
[4]
  EC50: 7 µM
[1]; [10]
  EC50: 8 µM
[5]
  EC50: 9 µM
[6]
  ED50 versus TGFβ1, inhibition of THP-1 migration: n.s.

## CLDPKQKWIQC [unlabeled peptide]
[1]; [10]
  EC50: ~9 µM

## EICADP [Peptide 3[1-6]]
[3]
  EC50: 17 µM
[2]; THP-1 migration, read-out: ED50 for inhibiting the CC chemokines
  EC50: ~30 µM
[2]; [9]
  EC50: 24 µM
[2]
  CC SPECIFICITY: 0.7
[4]
  EC50: 25 µM
[1]; [10]
  EC50: 33 µM
[5]
  EC50: 19 µM
[6]
  ED50 versus TGFβ1, inhibition of THP-1 migration: n.s.

## EICADPKQKWIQ [Ile11peptide 3]
[3]
  EC50: 2 µM
[2]
  selectivity of IL-8 over other chemokines: about 3 fold
  CC SPECIFICITY: 0.9
[2]; [9]
  EC50: 5 µM
[4]
  EC50: 4 µM
[1]; [10]
  EC50: 6 µM
[5]
  EC50: 7 µM
[6]
  ED50 versus TGFβ1, inhibition of THP-1 migration: n.s.

## EICADPSEEWVQ [Ser7Glu8Glu9pep3]
[3]
  EC50: 9 µM
[2]
  selectivity ratio for MIP1α versus all other chemokines: about 3 fold
[2]; [9]
  EC50: 6 µM
[4]
  EC50: 2 µM
[1]; [10]
  EC50: 7 µM
[5]
  EC50: 5 µM
[6]
  ED50 versus TGFβ1, inhibition of THP-1 migration: n.s.

## ELRVIESGPHCANTEI [Pep2[IL8]]
[7]
  AVERAGE ED50, peptide 2 family: estimated ka for binding to THP-1 cells: 1-10^e μM

## GGR [reference compound]
[2]
  effect on THP-1 migration induced by the chemokine panel, in words: None of these significantly inhibited migration

## KAK
[2]
  Chemokine antagonist: +

## KEN
[3]; tripeptide at 100 μM, mean ± range, dash = no statistically significant reduction in migration
  percentage inhibition of migration induced by IL-8: 70 ± 4%
[2]
  CC SPECIFICITY: <0.1
[2]; footnote f, KQK MCP-1, SEE MIP1α, KLK SDF1, KEN IL8, read-out: ED50 of a tripeptide against the one chemokine it is highly specific for
  EC50: 0.1 to 10 µM
[1]; tripeptide at 100 μM, mean ± range of two experiments, dash = no statistically significant reduction in migration
  percentage inhibition of migration induced by MCP-1: 21 ± 2^ %

## KNK
[2]
  Chemokine antagonist: +++

## RGD [reference compound]
[2]
  effect on THP-1 migration induced by the chemokine panel, in words: None of these significantly inhibited migration

## TTT [reference compound]
[2]
  effect on THP-1 migration induced by the chemokine panel, in words: None of these significantly inhibited migration

## WGQ
[1]; [10]
  EC50: ~1.75 µM

## WIQ
[2]; [9]
  EC50: 2 µM
[2]
  CC SPECIFICITY: 1.0

## n′-CLDPKQKWIQC-c′ (Biotin-CLDPKQKWIQC; cysteine pairing not given here) [labeled peptide, N-terminal biotin conjugate]
[1]; [10]
  EC50: ~4 µM
